Source: US11524966B1 (Valo Early Discovery, Inc., priority 2017, dated 2022)

The molecules below were run against T1, USP28 (His-tagged USP28-FL-mammalian) (Homo sapiens, UniProt Q96RU2) (assay: Ubiquitin-Rhodamine 110 Assay for USP28 Activity, Example A-1(a)). Details: Ubiquitin-Rhodamine 110 assay, Example A-1(a); read-out: USP28 A-1(a) IC50 range.
T1 construct: Expression of USP28 (1-1077)-TEV-6*His (pTT5 vector); made in house; host or cells: Expi293f cells (pTT5 vector)
T1 sequence (Q96RU2 1-1077): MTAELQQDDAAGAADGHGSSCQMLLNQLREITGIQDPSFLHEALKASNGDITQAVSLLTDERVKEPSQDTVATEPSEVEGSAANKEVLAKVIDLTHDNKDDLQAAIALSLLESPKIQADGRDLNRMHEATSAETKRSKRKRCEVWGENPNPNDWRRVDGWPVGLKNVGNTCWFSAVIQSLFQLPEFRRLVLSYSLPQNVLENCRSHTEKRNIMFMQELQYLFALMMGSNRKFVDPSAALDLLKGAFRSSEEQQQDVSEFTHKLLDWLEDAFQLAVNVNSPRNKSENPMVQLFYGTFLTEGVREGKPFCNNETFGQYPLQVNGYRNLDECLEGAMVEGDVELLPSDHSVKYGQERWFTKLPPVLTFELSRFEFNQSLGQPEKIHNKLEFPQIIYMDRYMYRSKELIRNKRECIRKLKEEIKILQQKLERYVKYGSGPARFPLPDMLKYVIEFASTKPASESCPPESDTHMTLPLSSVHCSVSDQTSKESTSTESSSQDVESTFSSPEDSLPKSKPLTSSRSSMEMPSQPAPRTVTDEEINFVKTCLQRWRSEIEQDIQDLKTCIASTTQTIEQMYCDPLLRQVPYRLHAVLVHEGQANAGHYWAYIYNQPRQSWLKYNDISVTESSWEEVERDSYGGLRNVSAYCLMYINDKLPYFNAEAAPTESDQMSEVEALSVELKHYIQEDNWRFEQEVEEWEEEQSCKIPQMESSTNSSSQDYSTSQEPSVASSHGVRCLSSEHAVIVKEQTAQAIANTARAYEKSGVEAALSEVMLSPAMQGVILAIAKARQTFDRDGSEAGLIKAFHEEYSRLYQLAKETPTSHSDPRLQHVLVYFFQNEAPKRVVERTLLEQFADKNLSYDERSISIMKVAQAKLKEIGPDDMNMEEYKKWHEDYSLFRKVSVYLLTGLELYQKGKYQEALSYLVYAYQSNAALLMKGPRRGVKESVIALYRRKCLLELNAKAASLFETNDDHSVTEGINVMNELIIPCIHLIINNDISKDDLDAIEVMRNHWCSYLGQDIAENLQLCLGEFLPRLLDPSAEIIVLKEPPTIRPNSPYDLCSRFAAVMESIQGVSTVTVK
Format: biochemical
Outline: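 IC50 from 4-parameter logistic fit of percent inhibition versus no-enzyme and DMSO controls; compounds 25 μM to 1.3 nM, 3-fold. Ub-Rh110 cleavage (25 nM, below Km) by […] mammalian-expressed USP28-FL-His ran 45 min at room temperature, stopped with 10 mM citric acid, read ex 485/em 535.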
CO[C@H]1CN(c2ccc3c(c2)OC[C@H](NC(=O)c2sc4nc(C)cnc4c2N)C3)C[C@@H]1N [Example 117, 7-amino-N-[(3R)-7-[(3S,4S)-3-amino-4-methoxypyrrolidin-1-yl]-3,4-dihydro-2H-1-benzopyran-3-yl]-3-methylthieno[2,3-b]pyrazine-6-carboxamide] was tested, and the IC50 was 0.001 to 0.05 µM. For CO[C@H]1CN(c2ccc3c(c2)OC[C@H](NC(=O)c2sc4nc(C)sc4c2N)C3)C[C@@H]1N [Example 118, 6-amino-N-[(3R)-7-[(3S,4S)-3-amino-4-methoxypyrrolidin-1-yl]-3,4-dihydro-2H-1-benzopyran-3-yl]-2-methylthieno[2,3-d][1,3]thiazole-5-carboxamide], the IC50 was 0.05 to 0.2 µM. With CO[C@H]1CCN(c2ccc3c(c2)OC[C@H](NC(=O)c2sc4nc(C)ccc4c2N)C3)C[C@@H]1N [Example 119, 3-amino-N-[(3R)-7-[(3S,4S)-3-amino-4-methoxypiperidin-1-yl}-3,4-dihydro-2H-1-benzopyran-3-yl]-6-methylthieno[2,3-b]pyridine-2-carboxamide] the IC50 was 0.05 to 0.2 µM. Work on CO[C@@H]1CCN(c2ccc3c(c2)OC[C@H](NC(=O)c2sc4nc(C)ccc4c2N)C3)C[C@H]1N [Example 120, 3-amino-N-[(3R)-7-[(3R,4R)-3-amino-4-methoxypiperidin-1-yl]-3,4-dihydro-2H-1-benzopyran-3-yl]-6-methylthieno[2,3-b]pyridine-2-carboxamide] yielded an IC50 of 0.001 to 0.05 µM. Work on CO[C@@H]1CN(c2ccc3c(c2)OC[C@H](NC(=O)c2sc4nc(C)ccc4c2N)C3)C[C@@H]1N [Example 121, 3-amino-N-[(3R)-7-[(3S,4R)-3-amino-4-methoxypyrrolidin-1-yl]-3,4-dihydro-2H-1-benzopyran-3-yl]-6-methylthieno[2,3-b]pyridine-2-carboxamide] yielded an IC50 of 0.001 to 0.05 µM. CO[C@H]1CN(c2ccc3c(c2)OC[C@H](NC(=O)c2sc4nc(C)ccc4c2N)C3)C[C@H]1N [Example 122, 3-amino-N-[(3R)-7-[(3R,4S)-3-amino-4-methoxypyrrolidin-1-yl]-3,4-dihydro-2H-1-benzopyran-3-yl]-6-methylthieno[2,3-b]pyridine-2-carboxamide] showed an IC50 of 0.001 to 0.05 µM. With Cc1ccc2c(N)c(C(=O)N[C@H]3COc4cc([C@H]5C[C@@H](N)C5)ccc4C3)sc2n1 [Example 123, 3-amino-6-methyl-N-[(3R)-7-[(1s,3S)-3-aminocyclobutyl]-3,4-dihydro-2H-1-benzopyran-3-yl]thieno[2,3-b]pyridine-2-carboxamide] the IC50 was 0.001 to 0.05 µM. Cc1ccc2c(N)c(C(=O)N[C@H]3COc4cc([C@H]5C[C@H](N)C5)ccc4C3)sc2n1 [Example 124, 3-amino-6-methyl-N-[(3R)-7-[(1r,3r)-3-aminocyclobutyl]-3,4-dihydro-2H-1-benzopyran-3-yl]thieno[2,3-b]pyridine-2-carboxamide] was tested, and the IC50 was 0.001 to 0.05 µM. In the case of Cc1ccc2c(N)c(C(=O)N[C@H]3COc4cc(C5CC6COCC(C5)N6)ccc4C3)sc2n1 (stereo partly drawn) [Example 125, 3-amino-6-methyl-N-[(3R)-7-{3-oxa-9-azabicyclo[3.3.1]nonan-7-yl}-3,4-dihydro-2H-1-benzopyran-3-yl]thieno[2,3-b]pyridine-2-carboxamide], the IC50 is reported as 0.001 to 0.05 µM. Cc1ccc2c(N)c(C(=O)N[C@H]3COc4cc(N5CC6CCC(C5)N6)c(C#N)c(F)c4C3)sc2n1 [Example 126, 3-amino-N-[(3R)-6-cyano-7-{3,8-diazabicyclo[3.2.1]octan-3-yl}-5-fluoro-3,4-dihydro-2H-1-benzopyran-3-yl]-6-methylthieno[2,3-b]pyridine-2-carboxamide] gave an IC50 of 0.001 to 0.05 µM. Cc1ccc2c(N)c(C(=O)N[C@H]3COc4cc(N5CC6CNCC(C5)O6)c(C#N)c(F)c4C3)sc2n1 [Example 127, 3-amino-N-[(3R)-6-cyano-5-fluoro-7-{9-oxa-3,7-diazabicyclo[3.3.1]nonan-3-yl}-3,4-dihydro-2H-1-benzopyran-3-yl]-6-methylthieno[2,3-b]pyridine-2-carboxamide] was tested, and the IC50 was 0.001 to 0.05 µM. With CO[C@H]1CN(c2ccc3c(c2)OC[C@H](NC(=O)c2sc4nc(C)ccc4c2N)C3)CC[C@@H]1N [Example 128, 3-amino-N-[(3R)-7-[(3S,4S)-4-amino-3-methoxypiperidin-1-yl]-3,4-dihydro-2H-1-benzopyran-3-yl]-6-methylthieno[2,3-b]pyridine-2-carboxamide] the IC50 was 0.001 to 0.05 µM. Molecule CO[C@@H]1CN(c2ccc3c(c2)OC[C@H](NC(=O)c2sc4nc(C)ccc4c2N)C3)CC[C@H]1N [Example 129, 3-amino-N-[(3R)-7-[(3R,4R)-4-amino-3-methoxypiperidin-1-yl]-3,4-dihydro-2H-1-benzopyran-3-yl]-6-methylthieno[2,3-b]pyridine-2-carboxamide] has an IC50 of 0.001 to 0.05 µM. For CO[C@H]1CN(c2ccc3c(c2)CC[C@H](NC(=O)c2sc4nc(C)cnc4c2N)C3)C[C@@H]1N [Example 130, 7-amino-N-[(2S)-6-[(3S,4S)-3-amino-4-methoxypyrrolidin-1-yl]-1,2,3,4-tetrahydronaphthalen-2-yl]-3-methylthieno[2,3-b]pyrazine-6-carboxamide], the IC50 was 0.05 to 0.2 µM. Molecule CCn1ccc2cc(C(=O)N[C@H]3CCc4cc(N5C[C@H](OC)[C@@H](N)C5)ccc4C3)nnc21 [Example 131, N-[(2S)-6-[(3S,4S)-3-amino-4-methoxypyrrolidin-1-yl]-1,2,3,4-tetrahydronaphthalen-2-yl]-7-ethyl-7H-pyrrolo[2,3-c]pyridazine-3-carboxamide] has an IC50 greater than 2 µM. With CCn1ccc2cc(C(=O)N[C@H]3CCc4cc(N5C[C@H](OC)[C@@H](N)C5)ccc4C3)cnc21 [Example 132, N-[(2S)-6-[(3S,4S)-3-amino-4-methoxypyrrolidin-1-yl]-1,2,3,4-tetrahydronaphthalen-2-yl]-1-ethyl-1H-pyrrolo[2,3-b]pyridine-5-carboxamide] the IC50 was 0.2 to 2 µM. CO[C@H]1CN(c2ccc3c(c2)CC[C@H](NC(=O)c2sc4nc(C)sc4c2N)C3)C[C@@H]1N [Example 133, 6-amino-N-[(2S)-6-[(3S,4S)-3-amino-4-methoxypyrrolidin-1-yl]-1,2,3,4-tetrahydronaphthalen-2-yl]-2-methylthieno[2,3-d][1,3]thiazole-5-carboxamide] was tested, and the IC50 was 0.05 to 0.2 µM. For COc1ccc2c(N)c(C(=O)N[C@H]3CCc4cc(N5C[C@H](OC)[C@@H](N)C5)ccc4C3)sc2n1 [Example 134, 3-amino-N-[(2S)-6-[(3S,4S)-3-amino-4-methoxypyrrolidin-1-yl]-1,2,3,4-tetrahydronaphthalen-2-yl]-6-methoxythieno[2,3-b]pyridine-2-carboxamide], the IC50 was 0.2 to 2 µM. Work on COc1nc2sc(C(=O)N[C@H]3CCc4cc(N5C[C@H](OC)[C@@H](N)C5)ccc4C3)c(N)c2cc1F [Example 135, 3-amino-N-[(2S)-6-[(3S,4S)-3-amino-4-methoxypyrrolidin-1-yl]-1,2,3,4-tetrahydronaphthalen-2-yl]-5-fluoro-6-methoxythieno[2,3-b]pyridine-2-carboxamide] yielded an IC50 of 0.2 to 2 µM. CO[C@H]1CN(c2cc(F)c3c(c2)CC[C@H](NC(=O)c2sc4nc(C)ccc4c2N)C3)C[C@@H]1N [Example 136, 3-amino-N-[(2S)-6-[(3S,4S)-3-amino-4-methoxypyrrolidin-1-yl]-8-fluoro-1,2,3,4-tetrahydronaphthalen-2-yl]-6-methylthieno[2,3-b]pyridine-2-carboxamide] gave an IC50 greater than 2 µM. With CO[C@H]1CN(c2cc(F)c3c(c2)CC[C@@H](NC(=O)c2sc4nc(C)ccc4c2N)C3)C[C@@H]1N [Example 137, 3-amino-N-[(2R)-6-[(3S,4S)-3-amino-4-methoxypyrrolidin-1-yl]-8-fluoro-1,2,3,4-tetrahydronaphthalen-2-yl]-6-methylthieno[2,3-b]pyridine-2-carboxamide] the IC50 was 0.05 to 0.2 µM. For CCn1ccc2cc(C(=O)N[C@H]3CCc4cc(N5C[C@H](OC)[C@@H](N)C5)cc(F)c4C3)nnc21 [Example 138, N-[(2S)-6-[(3S,4S)-3-amino-4-methoxypyrrolidin-1-yl]-8-fluoro-1,2,3,4-tetrahydronaphthalen-2-yl]-7-ethyl-7H-pyrrolo[2,3-c]pyridazine-3-carboxamide], the IC50 was greater than 2 µM.
